Assay results as given in patent US7786147B2, “Analogs of choline for neuroprotection and cognitive enhancement in neurodegenerative disorders” (Medical College of Georgia Research Institute., priority 2001, dated 2010).

What was measured:
[1] = tested on: differentiated PC-12 cells; assay: Cytoprotective effect (% Protection) with exposure 24 hours prior to growth factor withdrawal; assay type: cell-based; details: exposure 24 hours prior to removal of NGF and serum; FIGS. 11, 13A and B
Procedure: The above-described differentiated PC-12 cells were exposed to the indicated concentrations (see FIGS. 13A and B) of the FIG. 12 choline analogs 24 hours prior to growth factor withdrawal (removal of nerve growth factor, and changing from serum-containing to serum-free medium). % Protection values were calculated as the ratio of ELISA-based absorbance values for [protected cells−deprived cells (no analog):control (non-deprived) cells−deprived cells]×100. Each data point in FIG. 13 represents data obtained from two separate assays each performed with 5-8 replicates per point.

[2] = tested on: differentiated PC-12 cells; assay: MTT cell viability (neuroprotection) assay after neurotrophic factor withdrawal; assay type: cell-based; set-up: neuroprotective action after pretreatment with mecamylamine: dose or concentration left out as unconfirmed; details: for potency in neuroprotection relative to choline and its ethyl analogs (in words): effects at lowest dose 0.1 mM not much reduced from 10 mM
Procedure: Cell Culture: PC12 cells were maintained in 150-cm^2 tissue-culture flasks in Dulbecco's Modified Eagles medium containing 7% horse serum, 7% fetal calf serum, 1% non-essential amino-acids and 1% streptomycin (DMEM). The cells were incubated at 37 C in a 5% CO2-enriched, humidified atmosphere. To attain maximum differentiation, the cells were maintained in DMEM.NGF medium for 7 days, with the medium being changed every 2 or 3 days.
Assay for Cell viability. Cells were dissociated by trituration and plated at 1×10^4 cells per well on poly-L-lysine coated 96 well plates containing DMEM.NGF media. Next, the differentiated cells were incubated with the test drug at different concentrations for the specified period of time. Cell viability (cytotoxicity) was determined using the Cell Titer 96 non-radioactive cell proliferation/cytotoxicity assay kit (Promega), which is based on the cellular conversion of a 3-(4,5-dimethylthiazol-2-yl)-2,5-diphenyltetrazolium bromide (MTT) into a formazan product which can be detected spectrophotometrically. After deprivation of cells from NGF and serum, the medium was aspirated and 15 l of dye solution dissolved in DMEM was added. After an additional 4 hr incubation at 37 C, 100 l of solubilization/stop solution was added and the absorbance of solubilized MTT formazan products was measured at 570 nm.
Differentiated PC-12 cells were deprived of neurotrophic factors for 24 hr to promote cytotoxicity. Cell viability was measured by the MTT assay under control conditions, and in cultures in which a choline analog was introduced into the medium at the time of neurotrophic factor withdrawal. […] Choline and its mono-, di-, and tri-ethyl analogs produced a concentration dependent and intermediate level of neuroprotection improving cell viability by up to 40% of baseline.

[3] = molecular target: 7 nicotinic acetylcholine receptor (Rattus norvegicus, UniProt Q05941); assay type: binding; details: PC-12 cells; FIG. 8
Sequence of 7 nicotinic acetylcholine receptor (Q05941 23-502): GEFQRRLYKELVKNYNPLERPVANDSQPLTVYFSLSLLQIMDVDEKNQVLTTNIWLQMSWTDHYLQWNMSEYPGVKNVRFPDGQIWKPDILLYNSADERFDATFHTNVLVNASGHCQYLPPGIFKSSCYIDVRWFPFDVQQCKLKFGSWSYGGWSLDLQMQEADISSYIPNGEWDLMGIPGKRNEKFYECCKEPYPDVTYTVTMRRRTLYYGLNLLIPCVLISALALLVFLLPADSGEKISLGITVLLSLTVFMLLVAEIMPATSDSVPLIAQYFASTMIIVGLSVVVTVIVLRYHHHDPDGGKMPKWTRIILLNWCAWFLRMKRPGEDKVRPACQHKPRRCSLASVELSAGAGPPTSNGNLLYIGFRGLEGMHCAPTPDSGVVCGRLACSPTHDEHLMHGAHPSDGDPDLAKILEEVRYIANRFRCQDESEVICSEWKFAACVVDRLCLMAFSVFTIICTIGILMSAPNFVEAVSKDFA

With `CN1CCCC1c1cccnc1` (stereo not drawn) [nicotine] the “cytoprotective effect, % Protection concentration-effect curve (in words)” value [1] was “biphasic”.
`C[N+](C)(CCO)Cc1ccccc1.[Br-]` [benzylcholine] was tested, and the “effect on cell viability (in words)” value ([2]; PC-12 cells deprived of neurotrophic factors for 24 hr, FIG. 5) was “did not affect cell viability” and the “displacement of cell surface [125I]-bungarotoxin binding (in words)” value [3] was “failed to significantly interact”.
For `CC(=O)OCC[N+]1(C)CCCC1` [acetylpyrrolidinecholine], the “potency in neuroprotection relative to choline and its ethyl analogs (in words)” value [2] was “more potent”.
In the case of `C[N+]1(CCO)CCCC1` [pyrrolidinecholine], the “neuroprotective action after pretreatment with MLA” value ([2]; MLA (10 nM) pretreatment, FIGS. 9 and 10) is reported as “blocked”, the “potency in neuroprotection relative to choline and its ethyl analogs (in words)” value [2] is reported as “more potent” and the “neuroprotective action after pretreatment with mecamylamine” value ([2]; mecamylamine pretreatment, FIGS. 9 and 10) is reported as “blocked”. For the same compound, the “affinity for the [125I]-bungarotoxin site relative to choline (in words)” value [3] was “slightly more potent affinity” and the “displacement of cell surface [125I]-bungarotoxin binding (in words)” value [3] was “fully displaced”.
